Here are results for 79 compounds from the METLIN SMRT retention time set (Domingo-Almenara et al. 2019).

Each structure is given as a SMILES string.

The series is described as follows: gradient 5% acetonitrile 3 min, to 50% in 2 min, to 85% in 15 min, held 3 min, 100 µL/min. The note with it: column: Zorbax Extend-C18 2.1 x 50 mm; eluents: water / acetonitrile, 0.1% formic acid. The procedure, abridged:
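The system's dead and dwell volumes were 40 μL and 900 μL, with a Zorbax Extend-C18 column (2.1 × 50 mm, 1.8 μm) run at 100 μL/min in water and acetonitrile containing 0.1% formic acid each. Pure standards were analyzed in mixtures of ~100 molecules by HPLC–quadrupole time-of-flight mass spectrometry in positive and negative ionization mode. Retention time was assigned from computationally picked, manually inspected adduct peaks.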
As to `CCCn1c(=O)sc2cc(S(=O)(=O)N3CCC(C(=O)NC4CCCC4)CC3)ccc21`, the RP-LC retention time worked out at 890 s.

With `COc1ccc(OC)c(NC(=O)c2cc(C3CC3)[nH]n2)c1`, the RP-LC retention time was 775 s.

Regarding `Cc1nc(-c2cnccn2)n(CC(=O)Nc2cccc(C#N)c2)c(=O)c1C`, the RP-LC retention time was 711 s.

For `CC(=O)NCCCOc1ccc([N+](=O)[O-])cc1Cl`, the RP-LC retention time was 786 s.

`COc1cc(NC(=O)N2CCN(c3ccc(=O)n(-c4ccc(C)c(C)c4)n3)CC2)cc(OC)c1OC` showed an RP-LC retention time of 775 s.

Turning to `CCN(CC)c1nc2cc(C(=O)NCc3ccc(C)o3)ccc2c(=O)n1-c1ccccc1`, the RP-LC retention time came out at 1020 s.

Regarding `O=C(CNC(=O)c1c[nH]c2ccccc12)Nc1cc(Cl)ccc1O`, the RP-LC retention time was found to be 695 s.

In turn, `CCC1Oc2ccc(S(=O)(=O)N3CCC(C(=O)NC4CCCCCC4)CC3)cc2NC1=O` (centres undefined) had an RP-LC retention time of 951 s.

The compound `O=C(CN1N=C(c2ccccc2)c2ccccc2S1(=O)=O)Nc1cccc(Cl)c1` came in with an RP-LC retention time of 1020 s.

For `COc1ccc(-c2noc(Cc3nnc(-c4ccccc4)o3)n2)cc1OC`, the RP-LC retention time was 949 s.

`Cc1ccc(-n2c(=O)c3c(cc(C)n3C)n(CC(=O)Nc3ccc(Br)cc3F)c2=O)cc1` showed an RP-LC retention time of 944 s.

For the compound `COc1cc(C(C)=O)ccc1OCC(O)CN1CCN(c2ccc(C)c(Cl)c2)CC1` (centres undefined), the RP-LC retention time worked out at 585 s.

`Cc1cc(NC(=O)C(C)C)nn1Cc1ccccc1`: the RP-LC retention time came out at 778 s.

In turn, `Cc1ccc2nc(-c3cccc(Cl)c3)c(Nc3ccc4c(c3)OCO4)n2c1` showed an RP-LC retention time of 746 s.

`O=C(Cn1cnc2c(sc3nc(-c4ccccc4)ccc32)c1=O)Nc1ccc(F)cc1` had an RP-LC retention time of 994 s.

For `Cn1ncc2c3ccccc3n(CCCC(=O)NCCCN3CCOCC3)c2c1=O`, the RP-LC retention time worked out at 593 s.

Consider `CC(C)(C)NC(=O)CN1c2ccc(F)cc2-c2ccccc2S1(=O)=O`, for which the RP-LC retention time is 905 s.

`O=C(Nc1cccc(F)c1)C(=O)c1cn(CC(=O)N2CCOCC2)c2ccccc12` registered an RP-LC retention time of 902 s.

In turn, `CC(C)(C)C(=O)N1CCN(CC(F)(F)F)CC1` showed an RP-LC retention time of 746 s.

Consider `O=c1n(Cc2ccc3c(c2)OCO3)nc2c(S(=O)(=O)N3CCOCC3)cccn12`, for which the RP-LC retention time worked out at 736 s.

Turning to `CN(CC(=O)N1CCN(c2ccc(Cl)cc2)CC1)S(=O)(=O)c1c[nH]c(C(=O)N2CCCC2)c1`, the RP-LC retention time amounted to 837 s.

The compound `COc1ccc(SCCCC(=O)NCc2ccccc2)cc1` yielded an RP-LC retention time of 849 s.

`CCC(=O)N1CCC(Oc2nccnc2N2CCOCC2)C1` (centres undefined) gave an RP-LC retention time of 646 s.

With `Cc1ccc(-c2cn3ccccc3n2)cc1NS(=O)(=O)c1ccc(F)cc1`, the RP-LC retention time worked out at 665 s.

Turning to `CCN(Cc1ccccc1)C(=O)C1CCN(S(=O)(=O)c2ccc3c(c2)NC(=O)CO3)CC1`, the RP-LC retention time was determined as 852 s.

Take `CCOc1ccc(-c2nc3ncccn3c2NCc2ccc(Cl)cc2)cc1OC`: the RP-LC retention time came out at 760 s.

Compound `CCc1ccc(C2=C(C)C(N3CCC(C(=O)NC)CC3)=NS2(=O)=O)cc1` registered an RP-LC retention time of 738 s.

Regarding `COCCn1c(C2CCN(S(=O)(=O)c3ccc(C(C)C)cc3)C2)nc2cccnc21` (centres undefined), the RP-LC retention time was 927 s.

In turn, `Cc1cc(Cl)ccc1NC(=O)CC1COc2ccccc2NC1=O` (centres undefined) had an RP-LC retention time of 770 s.

Turning to `Cc1ccccc1CNC(=O)C1CCCN1S(=O)(=O)c1cc2c(cc1C)NC(=O)CO2` (centres undefined), the RP-LC retention time amounted to 732 s.

In the case of `O=C(Nc1ccc(F)c(Cl)c1)C1CCN(S(=O)(=O)c2ccc3[nH]c(=O)ccc3c2)CC1`, the RP-LC retention time was determined as 812 s.

As to `Cc1ccc(F)c(NC(=O)C2CC(=O)N(c3ccc4oc(C)nc4c3)C2)c1` (centres undefined), the RP-LC retention time is 753 s.

As for `CCn1nccc1-c1cccc(-c2noc(CNC(=O)Cc3ccccc3)n2)c1`, the RP-LC retention time came out at 855 s.

Consider `COc1ccc(-c2c(C(=O)Nc3cccc(C(C)=O)c3)nc3ccccn23)cc1`, for which the RP-LC retention time worked out at 937 s.

Compound `Cc1cc(=O)n(CCOc2ccc(F)cc2)c(N2CCSCC2)n1` registered an RP-LC retention time of 898 s.

`CC(C)NC(=O)c1ccc(OCC2CCN(C(=O)c3ccc(N(C)C)cc3)CC2)cc1`: the RP-LC retention time was found to be 816 s.

The compound `CC1CCN(Cc2nc3cc(NC(=O)c4ccco4)ccc3n2C(C)C)CC1` registered an RP-LC retention time of 643 s.

`O=C(Nc1nnc(SCc2ccccc2F)s1)c1ccccc1C(F)(F)F` had an RP-LC retention time of 944 s.

`COC(=O)c1ccc2c(=O)n(-c3ccc(Cl)cc3)c(N3CCSC3)nc2c1` came in with an RP-LC retention time of 1110 s.

In turn, `Cc1nn(-c2ccc(Cl)nn2)c2c1CCC2` came in with an RP-LC retention time of 946 s.

In the case of `COc1ccccc1N1CCN(c2cc(SCC(=O)Nc3cc(C)cc(C)c3)ncn2)CC1`, the RP-LC retention time amounted to 1070 s.

`O=C(NCc1ccc(Cl)cc1)C1CCN(c2cn[nH]c(=O)c2)CC1` gave an RP-LC retention time of 669 s.

`CCNC(=O)c1nc(C(=O)NCc2ccc(F)c(Cl)c2)cs1`: the RP-LC retention time stood at 819 s.

As for `O=C(Cc1ccc(F)cc1)NC(c1ccccc1)c1nnc(N2CCOCC2)o1` (centres undefined), the RP-LC retention time was found to be 743 s.

In the case of `CCOC(=O)c1c(C)oc2nc(C)nc(NCC3CCN(Cc4ccccc4F)CC3)c12`, the RP-LC retention time was found to be 702 s.

For the compound `Cc1nn(-c2nc(-c3ccccc3)cs2)c(C)c1CC(=O)Nc1ccccc1`, the RP-LC retention time amounted to 1130 s.

`CC1CCC(C(=O)Nc2cccc(-c3nnc4n3CCCC4)c2)CC1` (centres undefined) gave an RP-LC retention time of 756 s.

Take `Cc1nn(-c2cc(N(C)C)ncn2)c(C)c1CCC(=O)N1CCC(Cc2ccccc2)CC1`: the RP-LC retention time turned out to be 969 s.

Turning to `COc1cc(C(=O)NC2CCN(c3cc(-c4ccc(F)cc4)[nH]n3)C2)cc(OC)c1OC` (centres undefined), the RP-LC retention time amounted to 706 s.

As to `O=c1c2cc3c(cc2nc(SCc2nc(-c4cccc(F)c4)no2)n1Cc1ccncc1)OCO3`, the RP-LC retention time was 795 s.

Turning to `Cc1nn(C2CCS(=O)(=O)C2)c(C)c1N1CCN(C(=O)c2cc3ccccc3[nH]2)CC1` (centres undefined), the RP-LC retention time worked out at 747 s.

As for `COc1ccc2c(C)c(CCC(=O)N[C@H](CC(C)C)C(=O)O)c(=O)oc2c1C`, the RP-LC retention time came out at 781 s.

As for `CC1CCN(S(=O)(=O)c2ccc(-c3nnc(C(=O)N4CCCCC4)o3)cc2)CC1`, the RP-LC retention time was determined as 1040 s.

On to `O=C(NCc1ccc(Cl)cc1)NCC1(CO)CC1`, for which the RP-LC retention time came out at 654 s.

The compound `O=C(NCc1cccc(Cl)c1)C1CCN(c2cnc3nccnc3c2)CC1` showed an RP-LC retention time of 697 s.

On to `CCOC(=O)c1noc2nc(C)nc(NCc3ccccc3)c12`, for which the RP-LC retention time was found to be 1060 s.

Consider `CCCNC(=O)C1CCN(c2ccc(SCC(=O)Nc3cc(Cl)ccc3C)nn2)CC1`, for which the RP-LC retention time stood at 690 s.

The compound `Cc1ccc(-n2nc(C)c3sc(N4CCCC(C(=O)NC5CCCC5)C4)nc32)cc1` (centres undefined) showed an RP-LC retention time of 1150 s.

Compound `Cc1ccccc1Cn1c(CN2CCC(C(=O)NCCc3ccco3)CC2)cc2ccccc21` had an RP-LC retention time of 805 s.

Regarding `COCCC(=O)N1CCCn2cc(-c3cccc(C#N)c3)nc21`, the RP-LC retention time amounted to 639 s.

`Cn1cc(CC(=O)NCc2cc(F)cc(F)c2)c2cccnc21` registered an RP-LC retention time of 702 s.

As to `CCCCN(C)C(=O)Cn1c(CN(C)C(=O)c2ccco2)nc2ccccc21`, the RP-LC retention time was 655 s.

`COc1cccc2cc(C(=O)Nc3nc(-c4ccc(Cl)cc4)cs3)c(=O)oc12` registered an RP-LC retention time of 1290 s.

With `O=C(Nc1ccccc1)N1CCC(N2CC(OCC3CC3)C23CCOCC3)CC1` (centres undefined), the RP-LC retention time turned out to be 635 s.

`CCOCCCNS(=O)(=O)c1cccc(-c2nc(-c3ccc(C)cc3)no2)c1` registered an RP-LC retention time of 1160 s.

In turn, `CS(=O)(=O)c1ccc(Cl)c(NC(=O)c2cccnc2)c1` had an RP-LC retention time of 590 s.

The compound `O=C(NCCC1CCN(S(=O)(=O)c2ccc(F)cc2)CC1)NCc1ccc(F)cc1` showed an RP-LC retention time of 852 s.

`O=C(Cc1ccccc1F)NCC(=O)Nc1nc2ccccc2[nH]1`: the RP-LC retention time was 632 s.

In turn, `Cn1c(=O)c(-c2c(Cl)cccc2Cl)cc2cnc(Nc3ccc(N4CCOCC4)cc3)nc21` returned an RP-LC retention time of 1010 s.

In turn, `O=C(c1ccc2c(c1)OCO2)N1CCC2(CC1)N=C(c1ccc(Cl)cc1)NO2` registered an RP-LC retention time of 956 s.

The compound `COc1ccccc1C(=O)N1C[C@@H]2C[C@H]1C[C@@H]2NS(C)(=O)=O` registered an RP-LC retention time of 632 s.

Compound `CCC(=O)N1CCN(c2nc3c(s2)CC(C(=O)Nc2ccc(C)cc2Cl)CC3)CC1` (centres undefined) registered an RP-LC retention time of 607 s.

Regarding `COC(=O)c1ncn2c1C(=O)N(c1cccc(C)c1)C(C)(C(=O)NCc1ccc(C)cc1)C2` (centres undefined), the RP-LC retention time was 734 s.

Compound `CCc1cccc(NC(=O)C2CC(=O)N(c3ccc4oc(C)nc4c3)C2)c1` (centres undefined) registered an RP-LC retention time of 785 s.

In the case of `Cc1ccc(O)c(NC(=O)c2nc3nc(C)cc(C(F)F)n3n2)c1`, the RP-LC retention time worked out at 762 s.

The compound `CCC(C)NC(=O)c1cn(CCOC)cc2c(=O)n(-c3ccccc3)nc1-2` (centres undefined) had an RP-LC retention time of 819 s.

Compound `O=C(NC1CCN(c2cc(-c3ccccc3)[nH]n2)C1)c1ccc2cc[nH]c2c1` (centres undefined) displayed an RP-LC retention time of 792 s.

`Cc1ccc(CNC(=O)C2CCN(C(=O)c3cc(-c4ccncc4)n[nH]3)CC2)o1` returned an RP-LC retention time of 586 s.

For `COc1cccc(C(=O)NCCOc2cccc(C(F)(F)F)c2)c1OC`, the RP-LC retention time was 972 s.
